Measurements reported in ChEMBL document CHEMBL1132020, “Highly potent inhibitors of the Grb2-SH2 domain” (Bioorg Med Chem Lett, 1999).

Biological target: Growth factor receptor-bound protein 2 (Homo sapiens, UniProt P62993)
Experiment: Inhibition of Grb-SH2 domain binding to phosphorylated carboxy-terminal intracellular domain of epidermal growth factor receptor
Format: cell-based

Sequence of Growth factor receptor-bound protein 2 (P62993 whole entry, the tested form may be a part): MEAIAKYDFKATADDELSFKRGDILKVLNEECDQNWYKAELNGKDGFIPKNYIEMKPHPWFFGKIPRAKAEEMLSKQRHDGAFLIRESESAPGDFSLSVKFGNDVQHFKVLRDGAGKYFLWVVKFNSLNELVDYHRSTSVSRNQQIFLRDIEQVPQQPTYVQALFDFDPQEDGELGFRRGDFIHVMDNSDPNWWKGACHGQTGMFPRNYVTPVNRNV

| Structure (SMILES) | IC50 |
| --- | --- |
| CC(=O)N[C@@H](Cc1ccc(CP(=O)(O)O)cc1)C(=O)NC1(C(=O)N[C@@H](CC(N)=O)C(=O)NCCCn2ccc3cc(Cl)ccc32)CCCCC1 | 59 nM |
| CC(=O)N[C@@H](Cc1ccc(CP(=O)(O)O)cc1)C(=O)NC1(C(=O)N[C@@H](CC(N)=O)C(=O)NCCCc2c[nH]c3ccccc23)CCCCC1 | 155 nM |
| CC(=O)N[C@@H](Cc1ccc(CP(=O)(O)O)cc1)C(=O)NC1(C(=O)N[C@@H](CC(N)=O)C(=O)NCCCn2ccc3cc(C)ccc32)CCCCC1 | 0.4 nM |
| CC(=O)N[C@@H](Cc1ccc(CP(=O)(O)O)cc1)C(=O)NC1(C(=O)N[C@@H](CC(N)=O)C(=O)NCCCn2ccc3cc(N(C)C)ccc32)CCCCC1 | 3.4 nM |
| CC(=O)N[C@@H](Cc1ccc(CP(=O)(O)O)cc1)C(=O)NC1(C(=O)N[C@@H](CC(N)=O)C(=O)NCCCn2c(C)cc3ccccc32)CCCCC1 | 14.7 nM |
| CC(=O)N[C@@H](Cc1ccc(CP(=O)(O)O)cc1)C(=O)NC1(C(=O)N[C@@H](CC(N)=O)C(=O)NCCCc2cn(C)c3ccccc23)CCCCC1 | 9.2 nM |
| CC(=O)N[C@@H](Cc1ccc(CP(=O)(O)O)cc1)C(=O)NC1(C(=O)N[C@@H](CC(N)=O)C(=O)NCCCn2ccc3ccccc32)CCCCC1 | 1.2 nM |
| CC(=O)N[C@@H](Cc1ccc(CP(=O)(O)O)cc1)C(=O)NC1(C(=O)N[C@@H](CC(N)=O)C(=O)NCCCn2cc(C)c3ccccc32)CCCCC1 | 81 nM |
| COc1ccc2c(ccn2CCCNC(=O)[C@H](CC(N)=O)NC(=O)C2(NC(=O)[C@H](Cc3ccc(CP(=O)(O)O)cc3)NC(C)=O)CCCCC2)c1 | 0.9 nM |
| COc1ccc2c(CCCNC(=O)[C@H](CC(N)=O)NC(=O)C3(NC(=O)[C@H](Cc4ccc(CP(=O)(O)O)cc4)NC(C)=O)CCCCC3)c[nH]c2c1 | 14 nM |
| CC(=O)N[C@@H](Cc1ccc(CP(=O)(O)O)cc1)C(=O)NC1(C(=O)N[C@@H](CC(N)=O)C(=O)NCCCn2ccc3cc(O)ccc32)CCCCC1 | 0.3 nM |
